Tests used:
[1] = target: T1, Polyunsaturated fatty acid 5-lipoxygenase (Rattus norvegicus, UniProt P12527); test: In vitro test for inhibition of 5-lipoxygenase in cell-free preparations from rat PMN leukocytes
T1 sequence (P12527 whole entry): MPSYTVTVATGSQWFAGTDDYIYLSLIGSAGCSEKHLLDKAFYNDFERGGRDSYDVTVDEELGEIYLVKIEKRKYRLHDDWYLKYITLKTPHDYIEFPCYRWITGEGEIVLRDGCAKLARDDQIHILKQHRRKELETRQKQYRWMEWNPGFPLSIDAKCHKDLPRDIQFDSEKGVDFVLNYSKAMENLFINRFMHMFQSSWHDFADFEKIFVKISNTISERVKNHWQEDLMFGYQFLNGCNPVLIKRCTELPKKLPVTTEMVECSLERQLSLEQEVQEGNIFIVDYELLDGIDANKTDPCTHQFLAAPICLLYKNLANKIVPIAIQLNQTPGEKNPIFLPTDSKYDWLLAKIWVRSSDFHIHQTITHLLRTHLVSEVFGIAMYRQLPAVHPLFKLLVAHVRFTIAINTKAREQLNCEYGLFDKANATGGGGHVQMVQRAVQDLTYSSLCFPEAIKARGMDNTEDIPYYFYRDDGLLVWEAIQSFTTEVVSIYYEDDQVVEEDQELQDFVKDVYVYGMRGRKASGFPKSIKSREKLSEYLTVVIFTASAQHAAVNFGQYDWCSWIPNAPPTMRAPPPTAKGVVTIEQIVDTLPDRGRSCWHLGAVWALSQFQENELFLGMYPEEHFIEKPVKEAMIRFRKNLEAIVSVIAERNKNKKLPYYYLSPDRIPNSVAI

[2] = target: T2, Polyunsaturated fatty acid 5-lipoxygenase (Homo sapiens, UniProt P09917); test: In vitro inhibition of LTB4 biosynthesis in [Ca(2+)]-ionophore-activated human polymorphonuclear leukocytes; assay type: functional
T2 sequence (P09917 whole entry): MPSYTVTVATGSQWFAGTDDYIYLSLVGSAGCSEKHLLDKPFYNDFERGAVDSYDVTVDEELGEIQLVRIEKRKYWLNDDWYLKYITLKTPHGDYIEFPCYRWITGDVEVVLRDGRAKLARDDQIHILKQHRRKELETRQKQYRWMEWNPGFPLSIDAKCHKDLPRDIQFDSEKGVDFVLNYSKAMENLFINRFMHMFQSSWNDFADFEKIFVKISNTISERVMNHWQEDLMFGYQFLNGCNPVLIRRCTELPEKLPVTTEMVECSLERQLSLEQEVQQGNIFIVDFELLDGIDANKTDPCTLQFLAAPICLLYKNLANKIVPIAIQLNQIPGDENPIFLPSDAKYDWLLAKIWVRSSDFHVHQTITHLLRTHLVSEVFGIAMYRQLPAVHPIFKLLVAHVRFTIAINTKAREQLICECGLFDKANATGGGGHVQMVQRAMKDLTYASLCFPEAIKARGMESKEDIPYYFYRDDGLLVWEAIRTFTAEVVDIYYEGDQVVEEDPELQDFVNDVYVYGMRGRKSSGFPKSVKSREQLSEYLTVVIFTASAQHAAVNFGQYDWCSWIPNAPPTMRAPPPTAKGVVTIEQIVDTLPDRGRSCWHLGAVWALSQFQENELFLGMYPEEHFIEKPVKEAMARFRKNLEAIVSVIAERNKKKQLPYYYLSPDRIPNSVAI

Homo sapiens [3] = organism: Homo sapiens; test: Tested in vitro for the inhibition of LTB4 biosynthesis in [Ca(2+)]-ionophore-activated human polymorphonuclear leukocytes; (Result of a single titration); assay type: functional
[4] = target: T3, Polyunsaturated fatty acid 5-lipoxygenase (Rattus norvegicus) (UniProt P12527); test: Tested in vitro for the inhibition of 5-lipoxygenase in cell-free preparations from rat PMN leukocytes; conditions: concentration not given here
T3 sequence (whole entry): T1 sequence (P12527 whole entry)

Rattus norvegicus = test: Tested for percent inhibition of dyspnea duration in hyperreactive rat model after peroral administration of 5 mg/kg; assay type: functional; conditions: route oral
[5] = Maximum time taken for compound to reach peak concentration in rat plasma; assay type: ADME, organism-based
[6] = Peak concentration in rat plasma was determined; assay type: ADME, organism-based
[7] = Bioavailability in rat (dose 20 mg/kg p.o. in 1% methocel, and 5 mg/kg i.v. in PEG400); assay type: ADME, organism-based; conditions: in vivo, po
[8] = target: T4, Arachidonate 5-lipoxygenase-activating protein (Homo sapiens, UniProt P20292); test: Tested for inhibition of leukotriene biosynthesis by binding to 5-lipoxygenase activating protein
T4 sequence (P20292 whole entry): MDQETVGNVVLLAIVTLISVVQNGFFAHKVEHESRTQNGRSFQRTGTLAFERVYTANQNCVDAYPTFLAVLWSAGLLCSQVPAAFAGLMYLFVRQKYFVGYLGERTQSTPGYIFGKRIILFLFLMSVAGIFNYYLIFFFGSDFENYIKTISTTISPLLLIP

Homo sapiens [9] = organism: Homo sapiens; test: Tested in vitro for the inhibition of LTB4 biosynthesis in [Ca(2+)]-ionophore-activated human polymorphonuclear leukocytes (Result of a single titration); assay type: functional

| SMILES | IC50 [1] | IC50 [2] | other results |
| --- | --- | --- | --- |
| CC1Cc2c(OCc3ccc(-c4ccccc4)cn3)ccc3c2c(c(CC(C)(C)CC(=O)N(C)O)n3Cc2ccc(Cl)cc2)S1 (stereo not drawn) |  |  | IC50 (Homo sapiens [3]): 500 nM |
| CC1Cc2c(OCc3ccc(-c4ccccc4)cn3)ccc3c2c(c(CC(C)(C)C(=O)O)n3Cc2ccc(Cl)cc2)S1(=O)=O (stereo not drawn) | 320 nM | 210 nM |  |
| CC1Cc2c(SCc3ccc(-c4ccccc4)cn3)ccc3c2c(c(CC(C)(C)Cc2nnn[nH]2)n3Cc2ccc(Cl)cc2)S1 (stereo not drawn) | 120 nM | 11 nM |  |
| CC1Cc2c(OCc3ccc(-c4ccccc4)cn3)ccc3c2c(c(CC(C)(C)C(=O)O)n3Cc2ccccn2)S1 (stereo not drawn) | 45 nM | 110 nM |  |
| CC(C)(Cc1c2c3c(c(OCc4ccc(-c5ccccc5)cn4)ccc3n1Cc1ccc(Cl)cc1)CCS2)C(=O)O | 200 nM | 100 nM |  |
| CC(C)(Cc1c2c3c(c(OCc4ccc(-c5ccccc5)cn4)ccc3n1Cc1ccc(Cl)cc1)CCCS2)C(=O)O |  | 160 nM | inhibition [4]: 20% |
| CC1Cc2c(OCc3ccc(-c4ccccc4)cn3)ccc3c2c(c(CC(C)(C)C(=O)O)n3Cc2ccc(S(C)(=O)=O)cc2)S1 (stereo not drawn) | 350 nM | 420 nM |  |
| C[C@@H]1Cc2c(OCc3ccc(-c4ccccc4)cn3)ccc3c2c(c(CC(C)(C)C(=O)O)n3Cc2ccc(Cl)cc2)[S+]1[O-] (stereo partly drawn) | 330 nM | 830 nM |  |
| CC1Cc2c(OCc3ccc(C#N)cn3)ccc3c2c(c(CC(C)(C)C(=O)O)n3Cc2ccc(Cl)cc2)S1 (stereo not drawn) | 350 nM | 66 nM |  |
| CC1Cc2c(OCc3ccc(-c4ccccc4)cn3)ccc3c2c(c(CC(C)(C)C(=O)O)n3C)S1 (stereo not drawn) |  | 300 nM |  |
| CCCCn1c(CC(C)(C)C(=O)O)c2c3c(c(OCc4ccc(-c5ccccc5)cn4)ccc31)CC(C)S2 (stereo not drawn) | 130 nM | 95 nM |  |
| CC1Cc2c(OCc3ccc(-c4ccccc4)cn3)ccc3[nH]c(CC(C)(C)C(=O)O)c(c23)S1 (stereo not drawn) |  | 500 nM | inhibition [4]: 23% |
| CC1Cc2c(OCc3ccc(-c4ccccc4)cn3)ccc3c2c(c(CC(C)(C)CC(N)=O)n3Cc2ccc(Cl)cc2)S1 (stereo not drawn) |  |  | IC50 (Homo sapiens [3]): 1500 nM |
| CC1Cc2c(OCc3ccc(-c4ccccc4)cn3)ccc3c2c(c(CC(C)(C)C(=O)O)n3CC2CCCCC2)S1 (stereo not drawn) | 35 nM | 33 nM |  |
| CC1Cc2c(OCc3ccc(-c4ccccc4)cn3)ccc3c2c(c(CCC(=O)O)n3Cc2ccc(Cl)cc2)S1 (stereo not drawn) | 140 nM | 38 nM |  |
| CSc1c(CC(C)(C)C(=O)O)n(Cc2ccc(Cl)cc2)c2ccc(OCc3ccc(-c4ccccc4)cn3)cc12 | 600 nM | 170 nM |  |
| CC1(C)Cc2c(OCc3ccc(-c4ccccc4)cn3)ccc3c2c(c(CC(C)(C)C(=O)O)n3Cc2ccc(Cl)cc2)S1 | 3000 nM | 88 nM |  |
| CC1Cc2c(OCc3cccs3)ccc3c2c(c(CC(C)(C)C(=O)O)n3Cc2ccc(Cl)cc2)S1 (stereo not drawn) | 2000 nM | 28 nM |  |
| CCCCc1ccc(COc2ccc3c4c2CC(C)Sc4c(CC(C)(C)C(=O)O)n3Cc2ccc(Cl)cc2)nc1 (stereo not drawn) | 500 nM | 42 nM |  |
| CC1Cc2c(OCc3ccc(-c4ccccc4)cn3)ccc3c2c(c(CC(C)(C)CC(=O)NS(C)(=O)=O)n3Cc2ccc(Cl)cc2)S1 (stereo not drawn) | 36 nM | 11 nM | inhibition in vivo at 5 mg/kg (Rattus norvegicus): 44%; Tmax [5]: 4 h; Cmax [6]: 12 µM; bioavailability [7]: 45% |
| COc1cccc(Cn2c(CC(C)(C)C(=O)O)c3c4c(c(OCc5ccc(-c6ccccc6)cn5)ccc42)CC(C)S3)c1 (stereo not drawn) | 40 nM | 28 nM |  |
| COc1ccc(COc2ccc3c4c2CC(C)Sc4c(CC(C)(C)C(=O)O)n3Cc2ccc(Cl)cc2)nc1 (stereo not drawn) | 400 nM | 12 nM | IC50 [8]: 40 nM |
| CC1Cc2c(OCCc3ccc(-c4ccccc4)cn3)ccc3c2c(c(CC(C)(C)Cc2nnn[nH]2)n3Cc2ccc(Cl)cc2)S1 (stereo not drawn) | 1200 nM | 46 nM |  |
| CC1Cc2c(OCc3ccc(-c4ccccc4)cn3)ccc3c2c(c(CC(C)(C)C(=O)O)n3CCCc2ccccc2)S1 (stereo not drawn) | 35 nM | 23 nM |  |
| CC1Cc2c(OCc3ccc(-c4ccccc4)cn3)ccc3c2c(c(CC(C)(C)C(=O)O)n3C(=O)c2ccccc2)S1 (stereo not drawn) | 140 nM |  | IC50 (Homo sapiens [3]): 60 nM |
| CC1Cc2c(OCc3ccc(-c4ccccc4)cn3)ccc3c2c(c(C(=O)O)n3Cc2ccc(Cl)cc2)S1 (stereo not drawn) | 2000 nM | 97 nM |  |
| CC1Cc2c(OCc3ccc(-c4ccccc4)cn3)ccc3c2c(c(CC(C)(C)CC(=O)NS(=O)(=O)C(F)(F)F)n3Cc2ccc(Cl)cc2)S1 (stereo not drawn) | 67 nM | 125 nM |  |
| C[C@H]1Cc2c(OCc3ccc(-c4ccccc4)cn3)ccc3c2c(c(CC(C)(C)C(=O)O)n3Cc2ccc(Cl)cc2)[S+]1[O-] (stereo partly drawn) | 8000 nM |  | IC50 (Homo sapiens [3]): > 2000 nM |
| CC1Cc2c(OCc3ccc(C(=O)O)cn3)ccc3c2c(c(CC(C)(C)C(=O)O)n3Cc2ccc(Cl)cc2)S1 (stereo not drawn) | > 2000 nM |  | IC50 (Homo sapiens [9]): > 2000 nM |
| CC1Cc2c(OCc3ccc(-c4ccccc4)cn3)ccc3c2c(c(CC(C)(C)C(=O)O)n3Cc2ccc(-c3ccccc3)cn2)S1 (stereo not drawn) | 30 nM | 16 nM |  |

The next lines start with results.

| IC50 [1] | IC50 [2] | SMILES | other results |
| --- | --- | --- | --- |
| 130 nM | 33 nM | CCC1Cc2c(OCc3ccc(-c4ccccc4)cn3)ccc3c2c(c(CC(C)(C)C(=O)O)n3Cc2ccc(Cl)cc2)S1 (stereo not drawn) |  |
| 200 nM | 37 nM | CC1Cc2c(OCc3ccc(-c4ccccc4)cn3)ccc3c2c(c(CC(=O)O)n3Cc2ccc(Cl)cc2)S1 (stereo not drawn) |  |
| 2500 nM | 27 nM | CC1Cc2c(OCc3cccc(-c4ccccc4)n3)ccc3c2c(c(CC(C)(C)C(=O)O)n3Cc2ccc(Cl)cc2)S1 (stereo not drawn) |  |
| 1000 nM | 165 nM | CC1Cc2c(OCc3ccc(-c4ccccc4)cc3)ccc3c2c(c(CC(C)(C)C(=O)O)n3Cc2ccc(Cl)cc2)S1 (stereo not drawn) |  |
| 330 nM | 23 nM | CC1Cc2c(OCc3ccc(-c4ccccc4)cn3)ccc3c2c(c(CCC(C)(C)C(=O)O)n3Cc2ccc(Cl)cc2)S1 (stereo not drawn) |  |
| 630 nM | 35 nM | CC1Cc2c(OCc3ccccn3)ccc3c2c(c(CC(C)(C)C(=O)O)n3Cc2ccc(Cl)cc2)S1 (stereo not drawn) | IC50 [8]: 110 nM |
| 40 nM | 28 nM | COc1ccc(Cn2c(CC(C)(C)C(=O)O)c3c4c(c(OCc5ccc(-c6ccccc6)cn5)ccc42)CC(C)S3)cc1 (stereo not drawn) |  |
| 20 nM | 12 nM | CC1Cc2c(OCc3ccc(-c4ccccc4)cn3)ccc3c2c(c(CC(C)(C)CC(=O)O)n3Cc2ccc(Cl)cc2)S1 (stereo not drawn) | inhibition in vivo at 5 mg/kg (Rattus norvegicus): 54%; Tmax [5]: 2 h; Cmax [6]: 4 µM; bioavailability [7]: 27% |
| 130 nM | 19 nM | CC1Cc2c(OCc3ccc(-c4ccccc4)cn3)ccc3c2c(c(CC(C)(C)CCC(=O)O)n3Cc2ccc(Cl)cc2)S1 (stereo not drawn) |  |
| 600 nM | 3 nM | CC1Cc2c(OCc3ccc4ccccc4n3)ccc3c2c(c(CC(C)(C)C(=O)O)n3Cc2ccc(Cl)cc2)S1 (stereo not drawn) |  |
| 2000 nM | 80 nM | CC1Cc2c(OCc3cc(-c4ccccc4)ccn3)ccc3c2c(c(CC(C)(C)C(=O)O)n3Cc2ccc(Cl)cc2)S1 (stereo not drawn) |  |
|  | 22 nM | CC1Cc2c(OCc3ccc(-c4ccccc4)cn3)ccc3c2c(c(CC(C)(C)C(=O)O)n3Cc2ccc(Cl)cc2)S1 (stereo not drawn) |  |
| 400 nM | 20 nM | CC1Cc2c(OCc3cc4ccccc4cn3)ccc3c2c(c(CC(C)(C)C(=O)O)n3Cc2ccc(Cl)cc2)S1 (stereo not drawn) | IC50 [8]: 390 nM |

Reference: ChEMBL document CHEMBL1126955, “Substituted thiopyrano[2,3,4-c,d]indoles as potent, selective, and orally active inhibitors of 5-lipoxygenase. Synthesis and biological evaluation of L-691,816” (J Med Chem, 1993)
